Measured values from ChEMBL document CHEMBL4742401, “Cyclin-dependent kinase inhibitors and methods of use” (2019).

target: T1, Cyclin-dependent kinase 8 (Homo sapiens, UniProt P49336); experiment: Inhibition of CDK8 in human HepG2 cells assessed as reduction in IFNgamma-induced STATl S727 phosphorylation incubated for 18 hrs by Western blot analysis; type: cell-based
T1 sequence (P49336 whole entry): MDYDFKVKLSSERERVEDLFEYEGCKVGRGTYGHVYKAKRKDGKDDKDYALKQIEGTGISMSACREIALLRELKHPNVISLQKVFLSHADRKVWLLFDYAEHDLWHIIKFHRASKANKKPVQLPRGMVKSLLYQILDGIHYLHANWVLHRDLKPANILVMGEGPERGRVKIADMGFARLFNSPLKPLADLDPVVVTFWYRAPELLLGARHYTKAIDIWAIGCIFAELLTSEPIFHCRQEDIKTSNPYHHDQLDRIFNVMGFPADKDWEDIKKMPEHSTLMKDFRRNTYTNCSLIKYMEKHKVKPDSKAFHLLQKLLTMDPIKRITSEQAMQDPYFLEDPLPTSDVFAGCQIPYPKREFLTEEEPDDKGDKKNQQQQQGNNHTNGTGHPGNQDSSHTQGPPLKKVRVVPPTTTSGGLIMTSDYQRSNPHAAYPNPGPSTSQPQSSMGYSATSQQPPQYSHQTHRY

SMILES | inhibition
CN(C)[C@H]1CC[C@@]2(C)C(=CC[C@H]3[C@@H]4CC[C@H](c5ccc6ccncc6c5)[C@@]4(C)CC[C@@H]32)C1 | Dose-dependent effect

target: T1, Cyclin-dependent kinase 8; experiment: Inhibition of CDK8 (unknown origin) by competitive kinase binding based Lantha-screen Eu kinase binding assay

SMILES | IC50 [µM]
CN(C)[C@@H]1CC[C@@]2(C)[C@@H](CC[C@@H]3[C@@H]2CC[C@]2(C)[C@@H](c4ccc5ccncc5c4)CC[C@@H]32)C1 | ≤ 0.1
C[C@]12CC[C@H](O)CC1=CC[C@@H]1[C@@H]2CC[C@]2(C)C(c3ccc4ccncc4c3)=CC[C@@H]12 | 0.101
CN(C)[C@@H]1CC[C@@]2(C)[C@@H](CC[C@@H]3[C@@H]2CC[C@]2(C)C(c4ccc5ccncc5c4)=CC[C@@H]32)C1 | 0.201
C[C@]12CC[C@H]3[C@@H](CC=C4C[C@@H](O)CC[C@@]43C)[C@@H]1CC[C@@H]2c1ccc2[nH]ncc2c1 | ≥ 6
C[C@]12CC[C@H](O)CC1=CC[C@@H]1[C@@H]2CC[C@]2(C)C(c3ccc4c(N)n[nH]c4c3)=CC[C@@H]12 | 0.701
C[C@]12CC[C@H]3[C@@H](CC=C4C[C@@H](O)CC[C@@]43C)[C@@H]1CC[C@@H]2c1ccc2ccncc2c1 | ≤ 0.1
C[C@]12CC[C@H](O)CC1=CC[C@@H]1[C@@H]2CC[C@]2(C)C(c3ccc4cnccc4c3)=CC[C@@H]12 | ≥ 6
CN[C@H]1CC[C@@]2(C)[C@@H](CC[C@@H]3[C@@H]2CC[C@]2(C)[C@@H](c4ccc5ccncc5c4)CC[C@@H]32)C1 | 0.701
C[C@]12CC[C@H]3[C@@H](CC=C4C[C@@H](O)CC[C@@]43C)[C@@H]1CC[C@@H]2c1ccc2cn[nH]c2c1 | ≥ 6
CN(C)[C@H]1CC[C@@]2(C)C(=CC[C@H]3[C@@H]4CC[C@H](c5ccc6ccncc6c5)[C@@]4(C)CC[C@@H]32)C1 | ≤ 0.1
CC(=O)N(C)[C@H]1CC[C@@]2(C)[C@@H](CC[C@@H]3[C@@H]2CC[C@]2(C)[C@@H](c4ccc5ccncc5c4)CC[C@@H]32)C1 | ≤ 0.1
C[C@]12CC[C@H]3[C@@H](CC=C4C[C@@H](O)CC[C@@]43C)[C@@H]1CC[C@@H]2c1ccc2c(N)n[nH]c2c1 | 0.301
C[C@]12CC[C@H]3[C@@H](CC=C4C[C@@H](O)CC[C@@]43C)[C@@H]1CC[C@@H]2c1ccc2nc(N)ncc2c1 | 0.101
C[C@]12CC[C@H](O)CC1=CC[C@@H]1[C@@H]2CC[C@]2(C)C(c3ccc4cnncc4c3)=CC[C@@H]12 | ≥ 6
C[C@]12CC[C@H]3[C@@H](CC=C4C[C@@H](O)CC[C@@]43C)[C@@H]1CC[C@@H]2c1ccc2cnncc2c1 | ≥ 6
C[C@]12CC[C@H](n3ccnn3)C[C@@H]1CC[C@@H]1[C@@H]2CC[C@]2(C)[C@@H](c3ccc4ccncc4c3)CC[C@@H]12 | ≤ 0.1
C[C@]12CC[C@H](O)C[C@@H]1CC[C@@H]1[C@@H]2CC[C@]2(C)[C@@H](c3ccc4ccncc4c3)CC[C@@H]12 | 0.201
C[C@]12CC[C@H](O)CC1=CC[C@@H]1[C@@H]2CC[C@]2(C)C(c3ccc4nc(N)ncc4c3)=CC[C@@H]12 | 2
C[C@]12CC[C@H](N3CCOCC3)C[C@@H]1CC[C@@H]1[C@@H]2CC[C@]2(C)[C@@H](c3ccc4ccncc4c3)CC[C@@H]12 | 0.101
C[C@]12CC[C@H]3[C@@H](CC=C4C[C@@H](O)CC[C@@]43C)[C@@H]1CC[C@@H]2c1ccc2cnccc2c1 | 2
C[C@]12CC[C@H](O)C[C@@H]1CC[C@@H]1[C@@H]2CC[C@]2(C)C(c3ccc4ccncc4c3)=CC[C@@H]12 | 0.701
CN(C)[C@H]1CC[C@@]2(C)[C@@H](CC[C@@H]3[C@@H]2CC[C@]2(C)[C@@H](c4ccc5ccncc5c4)CC[C@@H]32)C1 | ≤ 0.1
C[C@]12CC[C@H](O)CC1=CC[C@@H]1[C@@H]2CC[C@]2(C)C(c3ccc4cn[nH]c4c3)=CC[C@@H]12 | ≥ 6
C[C@]12CC[C@H](O)CC1=CC[C@@H]1[C@@H]2CC[C@]2(C)C(c3ccc4[nH]ncc4c3)=CC[C@@H]12 | ≥ 6
CN(C)[C@H]1CC[C@@]2(C)[C@@H](CC[C@@H]3[C@@H]2CC[C@]2(C)C(c4ccc5ccncc5c4)=CC[C@@H]32)C1 | 0.101

target: T2, Serine/threonine-protein kinase Nek1 (Homo sapiens, UniProt Q96PY6); experiment: Inhibition of NEK1 (unknown origin)
T2 sequence (Q96PY6 whole entry): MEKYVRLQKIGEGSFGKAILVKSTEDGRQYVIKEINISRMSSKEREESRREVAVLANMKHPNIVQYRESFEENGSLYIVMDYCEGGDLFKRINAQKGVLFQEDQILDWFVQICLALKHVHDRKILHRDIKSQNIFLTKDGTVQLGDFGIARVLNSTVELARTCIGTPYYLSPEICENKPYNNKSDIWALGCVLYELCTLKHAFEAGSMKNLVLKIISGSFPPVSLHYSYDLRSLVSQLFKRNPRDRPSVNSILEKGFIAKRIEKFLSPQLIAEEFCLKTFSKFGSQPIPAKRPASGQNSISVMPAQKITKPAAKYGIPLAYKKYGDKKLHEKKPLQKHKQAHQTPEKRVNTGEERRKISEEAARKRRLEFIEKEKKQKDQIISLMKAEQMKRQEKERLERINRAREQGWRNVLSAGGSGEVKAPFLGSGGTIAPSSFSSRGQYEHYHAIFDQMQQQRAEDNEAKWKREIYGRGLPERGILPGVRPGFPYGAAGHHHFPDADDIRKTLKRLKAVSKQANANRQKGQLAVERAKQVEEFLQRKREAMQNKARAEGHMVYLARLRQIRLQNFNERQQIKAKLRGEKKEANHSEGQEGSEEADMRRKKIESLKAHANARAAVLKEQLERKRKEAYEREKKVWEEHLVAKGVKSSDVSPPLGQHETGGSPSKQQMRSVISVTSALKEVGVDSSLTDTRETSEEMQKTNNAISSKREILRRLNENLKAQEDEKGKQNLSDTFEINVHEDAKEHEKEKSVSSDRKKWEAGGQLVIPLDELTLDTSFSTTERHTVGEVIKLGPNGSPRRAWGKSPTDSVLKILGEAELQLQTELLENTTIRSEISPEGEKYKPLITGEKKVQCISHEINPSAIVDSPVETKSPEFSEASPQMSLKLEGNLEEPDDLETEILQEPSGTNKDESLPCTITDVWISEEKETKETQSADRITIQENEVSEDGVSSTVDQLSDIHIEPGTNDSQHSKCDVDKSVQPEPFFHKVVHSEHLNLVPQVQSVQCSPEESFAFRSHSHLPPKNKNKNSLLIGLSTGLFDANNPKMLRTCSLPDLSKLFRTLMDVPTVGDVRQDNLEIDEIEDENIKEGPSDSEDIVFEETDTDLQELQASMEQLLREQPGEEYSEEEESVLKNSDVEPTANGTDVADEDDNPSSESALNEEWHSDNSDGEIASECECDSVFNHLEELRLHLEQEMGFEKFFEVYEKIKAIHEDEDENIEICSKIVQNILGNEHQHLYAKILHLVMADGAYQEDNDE

SMILES | IC50 [µM]
CN(C)[C@H]1CC[C@@]2(C)C(=CC[C@H]3[C@@H]4CC[C@H](c5ccc6ccncc6c5)[C@@]4(C)CC[C@@H]32)C1 | > 10
